The assay deals with strain UGA1 expressing nanoluciferase, replication in HCT-8 cells. The experiment in a line: Growth inhibition assay in HCT-8 cells (nanoluciferase strain UGA1). The conditions noted are these: Cryptosporidium parvum, 48 h, nanoluciferase readout, (±SD), read-out: EC50 of replication measured in HCT-8 cells. It is filed as cell-based, C. parvum. How it is done:
strain UGA1 transfected to express nanoluciferase (Nluc) and obtained from the University of Arizona after propagation in newborn calves. HCT-8 cells were added to a 384-well plate and allowed to grow for 48 h to reach 75–90% confluence. The medium was removed, and test compounds were added in serial dilutions prior to the addition of 1000 oocysts per well in RPMI 1640 medium supplemented with 10% heat inactivated FBS and 1% penicillin streptomycin. Plates were incubated for 48 h; Nano-Glo luciferase reagent (Promega, Madison, WI) was then added, and the plates were read on an EnVision multilabel plate reader (PerkinElmer, Waltham, MA). EC50 curves were calculated as previously described using Prism v6.07 (GraphPad Software, La Jolla, CA).

In the case of `O=C(c1nccs1)N1CC[C@@H](Nc2nccc(-n3cc(C4CC4)nc3-c3cccc(Cl)c3)n2)C1` [(R)-RY-1-185], the EC50 (commonly the concentration giving half of the maximal effect) amounted to 10.8 µM.
The same measure for `O=C(c1nccs1)N1CC[C@@H](Nc2nccc(-n3cc(C4CC4)nc3-c3ccccc3)n2)C1` [(R)-RY-1-165]: 17.9 µM.

Values taken from paper PMC12333026, “Versatile Imidazole Scaffold with Potent Activity against Multiple Apicomplexan Parasites” (ACS Infectious Diseases, 2025).
